Test results: US20250034171A1, “IMIDAZOPYRIDINE AMIDES AND RELATED COMPOUNDS FOR USE IN THE TREATMENT OF BACTERIAL INFECTIONS” (priority 2021, published 2025)
In brackets after ≈: the same amount, converted by molar mass. Read-outs that look alike come from different tables or passages of the source.

System: Mycobacterium tuberculosis strain H37Rv
Assay: Test 2: MIC determination against M. tuberculosis, resazurin fluorescence
Format: cell-based
Settings: Test 2, M. tuberculosis H37Rv; for MIC90: read-out: Bacterial activity MIC90; for IC50: read-out: Bacterial activity pMIC50 (converted)
[1] = Mycobacterium tuberculosis, H37RV

Compound	Bacterial activity pMIC50	MIC90 [µM]	MIC90 [1] [µM]	IC50 [1] [pM]
CCc1nc2ncc(C)cn2c1C(=O)NCc1ccc(-c2cn3c(n2)CC(C(F)F)CC3)cc1 (stereo not drawn) [Compound 147]	7.82	0.05 (≈ 0.0232 µg/mL)		
CCc1nc2ncc(C)cn2c1C(=O)NCc1ccc(-c2nc3n(n2)CCCC3)c(C)n1 [Compound 148]			> 0.5	331000
CCc1nc2ncccn2c1C(=O)NCc1ccc(-c2nc3n(n2)CCC(C)C3)cc1 (stereo not drawn) [Compound 149]			> 0.5	229000
[2H]C([2H])([2H])c1cnc2nc(CC)c(C(=O)NCc3ccc(-c4nc5n(n4)CC[C@@H](C)C5)cc3)n2c1 [Compound 150]			0.03 (≈ 0.013 µg/mL)	10000
CCc1nc2ccc(C(F)(F)F)cn2c1C(=O)NCc1ccc(-c2cn3c(n2)C[C@@H](C(F)(F)F)CC3)cc1 [Compound 153]			> 0.5	> 501000
CCc1nc2ccc(C(F)(F)F)cn2c1C(=O)NCc1ccc(-c2cn3c(n2)C[C@H](C(F)(F)F)CC3)cc1 [Compound 154]			> 0.5	> 501000
CCc1nc2ncc(C(F)(F)F)cn2c1C(=O)NCc1ccc(-c2nc3n(n2)CC[C@@H](C)C3)cc1 [Compound 155]			> 0.5	> 501000
CCc1nc2ncccn2c1C(=O)NCc1ccc(-c2nc3n(n2)CC[C@@H](C)C3)cc1 [Compound 156]			> 0.5	191000
CCc1nc2ncccn2c1C(=O)NCc1ccc(-c2nc3n(n2)CC[C@H](C)C3)cc1 [Compound 157]			0.41 (≈ 0.17 µg/mL)	126000
CCc1nc2ncccn2c1C(=O)NCc1ccc(-c2cn3c(n2)C[C@H](C(F)(F)F)CC3)cc1 [Compound 158]			0.29 (≈ 0.136 µg/mL)	75900
CCc1nc2ccccn2c1C(=O)NCc1ccc(-c2nc3n(n2)CC[C@H](C)C3)cc1 [Compound 159]			0.037 (≈ 0.0153 µg/mL)	11000
CCc1nc2n(c1C(=O)NCc1ccc(-c3nc4n(n3)CC[C@H](C)C4)cc1)CCCC2 [Compound 160]			0.088 (≈ 0.0368 µg/mL)	35500
CCc1nc2ccccn2c1C(=O)NCc1ccc(-c2cn3c(n2)C[C@@H](C(F)(F)F)CC3)cc1 [Compound 161]			0.056 (≈ 0.0262 µg/mL)	18600
CCc1nc2ccccn2c1C(=O)NCc1ccc(-c2nc3n(n2)CC[C@@H](C)C3)cc1 [Compound 162]			0.044 (≈ 0.0182 µg/mL)	11200
CCc1nc2n(c1C(=O)NCc1ccc(-c3nc4n(n3)CC[C@@H](C)C4)cc1)CCCC2 [Compound 163]			0.17 (≈ 0.0712 µg/mL)	66100
CCc1nc2n(c1C(=O)NCc1ccc(-c3cn4c(n3)C[C@H](C(F)(F)F)CC4)cc1)CCCC2 [Compound 164]			0.058 (≈ 0.0273 µg/mL)	17000
CCc1nc2ccccn2c1C(=O)NCc1ccc(-c2cn3c(n2)C[C@H](C(F)(F)F)CC3)cc1 [Compound 165]			0.055 (≈ 0.0257 µg/mL)	16200
CCc1nc2ncccn2c1C(=O)NCc1ccc(-c2cn3c(n2)C[C@@H](C(F)(F)F)CC3)cc1 [Compound 166]			> 0.5	145000
CCc1nc2n(c1C(=O)NCc1ccc(-c3nc4n(n3)CC[C@@H](C(F)(F)F)C4)cc1)C[C@@H](OC)CC2 [Compound 167]			0.45 (≈ 0.226 µg/mL)	132000
CCc1nc2n(c1C(=O)NCc1ccc(-c3nc4n(n3)CC[C@H](C(F)(F)F)C4)cc1)C[C@@H](OC)CC2 [Compound 168]			0.5 (≈ 0.251 µg/mL)	174000
O=C(NCc1ccc(-c2nc3n(n2)CC[C@H](C(F)(F)F)C3)cc1)c1c(C(F)(F)F)nc2ncccn12 [Compound 170]			> 0.45	> 275000
CCc1nc2ncccn2c1C(=O)NCc1ccc(-c2nc3n(n2)CC[C@@H](C(F)(F)F)C3)cc1 [Compound 171]			0.18 (≈ 0.0845 µg/mL)	46800
CCc1nc2ncc(C(F)(F)F)cn2c1C(=O)NCc1ccc(-c2nc3n(n2)CC[C@@H](C(F)(F)F)C3)cc1 [Compound 172]			> 0.46	> 295000
CCc1nc2ncc(C(F)(F)F)cn2c1C(=O)NCc1ccc(-c2nc3n(n2)CC[C@H](C(F)(F)F)C3)cc1 [Compound 173]	<6.49	>0.47		
CCc1nc2ncc(Cl)cn2c1C(=O)NCc1ccc(-c2cn3c(n2)C[C@H](C(F)(F)F)CC3)cc1 [Compound 175]			0.059 (≈ 0.0297 µg/mL)	21900
CCc1nc2ncc(Cl)cn2c1C(=O)NCc1ccc(-c2cn3c(n2)C[C@@H](C(F)(F)F)CC3)cc1 [Compound 176]			0.039 (≈ 0.0196 µg/mL)	12600
CCc1nc2ncccn2c1C(=O)NCc1ccc(-c2nc3n(n2)C[C@@H](C(F)(F)F)CC3)cc1 [Compound 181]			0.22 (≈ 0.103 µg/mL)	57500
CCc1nc2ncccn2c1C(=O)NCc1ccc(-c2nc3n(n2)C[C@H](C(F)(F)F)CC3)cc1 [Compound 182]			0.2 (≈ 0.0939 µg/mL)	52500
CCc1nc2n(c1C(=O)NCc1ccc(-c3cn4c(n3)CC(C(F)(F)F)CC4)c(F)c1)CCCC2 (stereo not drawn) [Compound 185]			0.034 (≈ 0.0166 µg/mL)	9770
CCc1nc2ncccn2c1C(=O)NCc1ccc(-c2cc3n(n2)CCCC3)cc1 [Compound 187]			> 0.5	151000
